Test results from ChEMBL document CHEMBL4706555, “Synthesis of biphenyl oxazole derivatives via Suzuki coupling and biological evaluations as nucleotide pyrophosphatase/phosphodiesterase-1 and -3 inhibitors” (Eur J Med Chem, 2020).

Key:
[1] = target: T1, Ectonucleotide pyrophosphatase/phosphodiesterase family member 3 (Homo sapiens, UniProt O14638); assay: Inhibition of human recombinant NPP3 expressed in COS-7 cell membrane […] using p-nitrophenyl thymidine monophosphate substrate incubated for 35 mins by spectrophotometric analysis; assay type: cell membranes
T1 sequence (O14638 whole entry): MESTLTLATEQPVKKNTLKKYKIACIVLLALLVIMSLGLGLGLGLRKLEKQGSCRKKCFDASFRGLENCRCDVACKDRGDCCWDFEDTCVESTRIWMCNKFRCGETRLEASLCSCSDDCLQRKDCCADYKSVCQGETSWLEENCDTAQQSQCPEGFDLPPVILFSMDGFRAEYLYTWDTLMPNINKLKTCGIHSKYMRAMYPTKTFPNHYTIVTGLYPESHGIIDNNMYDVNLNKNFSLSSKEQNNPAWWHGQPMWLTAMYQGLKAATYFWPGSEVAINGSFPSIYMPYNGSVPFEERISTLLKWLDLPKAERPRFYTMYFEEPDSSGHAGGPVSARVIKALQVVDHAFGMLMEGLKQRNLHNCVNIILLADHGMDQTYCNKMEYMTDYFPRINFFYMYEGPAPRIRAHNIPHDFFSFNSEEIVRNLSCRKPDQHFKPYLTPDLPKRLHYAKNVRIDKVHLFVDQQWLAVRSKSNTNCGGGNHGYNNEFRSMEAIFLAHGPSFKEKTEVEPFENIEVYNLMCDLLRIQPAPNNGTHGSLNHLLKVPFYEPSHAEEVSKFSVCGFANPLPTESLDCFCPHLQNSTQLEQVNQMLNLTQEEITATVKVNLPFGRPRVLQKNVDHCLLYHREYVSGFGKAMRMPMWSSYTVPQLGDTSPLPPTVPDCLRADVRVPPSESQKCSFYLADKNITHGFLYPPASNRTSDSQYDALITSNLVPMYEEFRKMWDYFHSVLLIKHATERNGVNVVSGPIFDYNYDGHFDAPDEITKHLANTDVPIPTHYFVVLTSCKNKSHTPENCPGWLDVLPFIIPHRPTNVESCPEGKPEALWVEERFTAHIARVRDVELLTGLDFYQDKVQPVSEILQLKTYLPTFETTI

[2] = target: T2, Ectonucleotide pyrophosphatase/phosphodiesterase family member 1 (Homo sapiens) (UniProt P22413); assay: Inhibition of human recombinant NPP1 expressed in COS-7 cell membrane using p-nitrophenyl thymidine monophosphate substrate incubated for 35 mins by spectrophotometric analysis; assay type: cell membranes; parameters: concentration or dose not given beside the values
T2 sequence (whole entry): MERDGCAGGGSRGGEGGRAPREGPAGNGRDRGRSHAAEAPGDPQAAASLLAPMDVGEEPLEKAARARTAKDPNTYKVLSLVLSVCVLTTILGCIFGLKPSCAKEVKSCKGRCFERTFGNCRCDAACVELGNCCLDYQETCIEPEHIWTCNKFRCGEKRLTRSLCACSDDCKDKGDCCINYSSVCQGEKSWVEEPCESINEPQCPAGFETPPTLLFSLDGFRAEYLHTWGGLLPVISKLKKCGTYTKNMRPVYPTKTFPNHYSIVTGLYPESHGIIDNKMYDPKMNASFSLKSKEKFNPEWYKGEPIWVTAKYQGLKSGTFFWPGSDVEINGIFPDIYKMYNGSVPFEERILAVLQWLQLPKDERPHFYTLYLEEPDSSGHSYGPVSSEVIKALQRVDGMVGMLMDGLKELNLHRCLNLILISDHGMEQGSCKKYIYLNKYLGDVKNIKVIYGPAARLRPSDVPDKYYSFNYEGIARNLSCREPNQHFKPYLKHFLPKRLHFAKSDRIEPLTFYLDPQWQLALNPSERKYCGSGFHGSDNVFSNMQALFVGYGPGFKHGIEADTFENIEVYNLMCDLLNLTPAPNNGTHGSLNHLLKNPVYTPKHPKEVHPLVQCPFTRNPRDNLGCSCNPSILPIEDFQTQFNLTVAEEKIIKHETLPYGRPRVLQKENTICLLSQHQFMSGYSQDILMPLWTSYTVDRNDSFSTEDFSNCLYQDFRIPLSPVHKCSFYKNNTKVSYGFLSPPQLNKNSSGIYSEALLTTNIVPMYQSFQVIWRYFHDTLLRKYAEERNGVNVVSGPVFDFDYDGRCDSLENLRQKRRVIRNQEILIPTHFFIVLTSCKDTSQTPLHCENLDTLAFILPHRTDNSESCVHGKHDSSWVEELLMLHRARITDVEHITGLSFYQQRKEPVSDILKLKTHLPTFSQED

[3] = target: Ectonucleotide pyrophosphatase/phosphodiesterase family member 3 (Homo sapiens) (UniProt O14638); assay: Inhibition of human recombinant NPP3 expressed in COS-7 cell membrane using p-nitrophenyl thymidine monophosphate substrate incubated for 35 mins by spectrophotometric analysis; parameters: concentration or dose not given beside the values
[4] = target: T3, Ectonucleotide pyrophosphatase/phosphodiesterase family member 1 (Homo sapiens, UniProt P22413); assay: Inhibition of human recombinant NPP1 expressed in COS-7 cell membrane […] using p-nitrophenyl thymidine monophosphate substrate incubated for 35 mins by spectrophotometric analysis; assay type: cell membranes
T3 sequence (P22413 whole entry): T2 sequence (whole entry)

[5] = target: T4, Ectonucleotide pyrophosphatase/phosphodiesterase family member 3 (Homo sapiens) (UniProt O14638); assay: Potency index, ratio of IC50 for suramin to IC50 for test compound for human recombinant NPP3 expressed in COS-7 cell membrane using p-nitrophenyl thymidine monophosphate substrate incubated for 35 mins by spectrophotometric analysis; assay type: cell membranes
T4 sequence (whole entry): T1 sequence (O14638 whole entry)

[6] = target: T2, Ectonucleotide pyrophosphatase/phosphodiesterase family member 1 (Homo sapiens); assay: Potency index, ratio of IC50 for suramin to IC50 for test compound for human recombinant NPP1 expressed in COS-7 cell membrane using p-nitrophenyl thymidine monophosphate substrate incubated for 35 mins by spectrophotometric analysis; assay type: cell membranes

IC50 [1] | inhibition [2] | inhibition [3] | IC50 [4] | Structure (SMILES) | further results
2.21 µM | 36% | – | – | Cc1cccc(-c2ccc(-c3coc(-c4ccccc4-c4cccc(C)c4)n3)cc2)c1 | –
– | 27% | 48% | – | CCOc1ccccc1-c1nc(-c2ccc(-c3ccccc3)cc2)co1 | –
5.06 µM | – | – | 2.56 µM | Cc1ccc(-c2ccc(-c3coc(C)n3)cc2)cc1 | –
0.15 µM | – | – | 2.41 µM | Cc1nc(-c2ccc(-c3cccc4ccccc34)cc2)co1 | –
– | 33% | 47% | – | c1ccc(-c2ccc(-c3coc(-c4ccccc4-c4ccccc4)n3)cc2)cc1 | –
1.7 µM | 43% | – | – | Cc1cccc(-c2ccc(-c3coc(C)n3)cc2)c1 | –
– | 46% | 43% | – | Cc1nc(-c2ccc(-c3ccccc3)cc2)co1 | –
1.31 µM | – | – | 1.44 µM | Cc1nc(-c2ccc(-c3ccc(OCc4ccccc4)cc3)cc2)co1 | –
0.17 µM | 38% | – | – | COc1ccc(-c2ccc(-c3coc(C)n3)cc2)cc1 | Ratio IC50 [5]: 5.3
11.1 µM | – | – | 9.23 µM | CCOc1ccccc1-c1nc(-c2ccc(-c3ccc(C)cc3)cc2)co1 | –
– | – | 40% | 0.15 µM | CCOc1ccccc1-c1nc(-c2ccc(-c3cccc4ccccc34)cc2)co1 | Ratio IC50 [6]: 51.8
3.73 µM | – | – | 17.2 µM | COc1ccc(-c2ccc(-c3coc(-c4ccccc4)n3)cc2)cc1 | –
– | 44% | 43% | – | c1ccc(-c2nc(-c3ccc(-c4cccc5ccccc45)cc3)co2)cc1 | –
– | 48% | – | – | Cc1cccc(-c2ccc(-c3coc(-c4ccccc4)n3)cc2)c1 | –
– | 40% | 45% | – | Cc1nc(-c2ccc(-c3ccccc3C)cc2)co1 | –
– | 31% | 49% | – | c1ccc(-c2ccc(-c3coc(-c4ccccc4)n3)cc2)cc1 | –
4.23 µM | – | – | 0.42 µM | Cc1ccccc1-c1ccc(-c2coc(-c3ccccc3)n2)cc1 | –
